# Test results from patent publication US11191820B2, “Method for inducing early T memory response with short peptides anti-tumor vaccine” (OSE IMMUNOTHERAPEUTICS, priority 2015, dated 2021).
# Columns and labels:
# Type in all cases: in vivo, human
# central memory T cells [1] = test: Central memory T cell cultured ELISPOT, phase 2 trial in advanced NSCLC
# In short: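 Patient PBMC were pre-stimulated for 10 days with 10 μg/ml peptide plus rIL2 (10 U/ml, days 1, 4, 7), then replated at 5×10^4/well with irradiated autologous PBMC and 10 μg/ml peptide, and SFC were counted. A response was positive if >5 SFC above, and > mean+2 SD of, the irrelevant HBV epitope, and twofold the pre-vaccination response plus 2 SD.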
# central memory T cells [2] = test: Cultured IFN-γ ELISPOT after 10-day in vitro stimulation of PBMC, phase 1/2 colon cancer trial of OSE-2101; parameters: key to net SFC of vaccine positive CTL responses: —, indicates SFC response did not meet criteria and vaccine response was negative; conditions: for Mean SFC: 10 colon patients
# Description: (§1) Clinical study design. Both trials were designed as phase 1/2, open label, multi-center, single dose, multiple administration studies to evaluate the safety and immunogenicity of the OSE-2101 immunotherapy. Patients were treated with 1 ml OSE-2101 every 3 weeks for a total of six doses. Each dose was administered subcutaneously in the same vicinity in the deltoid or upper thigh region, or at a contralateral site if local side-effects were observed. The study duration for each completed patient was 18 weeks. Clinical responses or patient survival were not measured in either phase 1/2 studies.
# (§2) Clinical sample processing. Blood or leukapheresis product was obtained from patients at the pre-treatment, the Week 9 and Week 18 time points, 3 weeks after the third and sixth dose of OSE-2101 respectively. Peripheral blood mononuclear cells (PBMC) were isolated from samples within 24 hours of collection using a FICOLL-PAQUE density gradient and cryopreserved in containers designed to ensure optimal freezing (Mr. Frosty, Nalgene). For use, cells were rapidly thawed at 37° C. then transferred to human AB serum-containing medium for work-up.
# (§3) Measurement of central T memory cells responses and T effector memory cells. The CTL responses in 16 total patients (10 colon and six NSCLC) were monitored for CTL responses against each epitope and against the wild-type epitope of epitopes analogs. For each patient, the pre-treatment, Week 9 and Week 18 time points were batch-tested in the same experiment to allow pre- versus post-treatment response comparison in the same experiment. Central T memory cells responses were measured using an IFN-γ enzyme-linked immunospot (cultured ELISPOT) assay following in vitro stimulation of PBMC for 10 days with each vaccine epitope. Briefly, PBMC from each time point were stimulated on day 0 with 10 μg/ml of each epitope individually in replicate in 48-well culture plates (2×10^6 PBMC/well). All cultures were fed with rIL-2 (Endogen, Woburn, Mass.; 10 U/ml final concentration) on days 1, 4 and 7. Ten days after initiation of culture, cells were harvested and tested for activity against specific vaccine peptides and corresponding wild-type peptides of vaccine analogs in the T memory ELISPOT assay. Cells were tested in Millipore IP 96-well plates pre-coated with mouse anti-human IFN-γ antibody (Mabtech USA, Cincinnati, Ohio). Five×10^4 cells and 1.25×10^4 cells from each culture were plated in triplicate wells together with 10^5 irradiated autologous PBMC and 10 μg/ml peptide. As a control, CTL were also tested against an irrelevant HLA-A2.1-binding HBV peptide. After 20 hours incubation, T memory ELISPOT plates were developed by performing sequential incubations with biotinylated anti-human IFN-γ antibody (Mabtech USA), Avidin-Peroxidase Complex (APC, Vector Laboratories, Burlingame, Calif.), and 3-amino-9-ethyl carbazole (AEC) substrate (Sigma Aldrich, St. Louis, Mo.). Spot-forming cells (SFC) were enumerated using a computer-assisted image analysis system (Zeiss KS ELISPOT Reader, Carl Zeiss MicroImaging, Thornwood, N.J.). Data is reported as the net SFC per 5×10^4 cells after subtracting spots induced with the irrelevant HBV peptide.
# central memory T cells [3] = test: Cultured IFN-γ ELISPOT after 10-day in vitro stimulation of PBMC, phase 1/2 NSCLC trial of OSE-2101; parameters: key to net SFC of vaccine positive CTL responses: —, indicates SFC response did not meet criteria and vaccine response was negative; conditions: for No. Positive Responses / Mean SFC: 6 NSCLC patients
# Description: as §1, §2, §3
sequence,measurement,setting,value
KVAEIVHFL [MAGE3.112I5 A],% of patients with positive CTL/central memory T cell response,"central memory T cells [1]; phase 2, month 9",0%
same,patients with positive CTL/central memory T cell response / patients tested,"central memory T cells [1]; phase 2, month 9",0/7
same,% of patients with positive CTL/central memory T cell response,"central memory T cells [1]; phase 2, month 12",0%
same,patients with positive CTL/central memory T cell response / patients tested,"central memory T cells [1]; phase 2, month 12",0/4
same,% of patients with positive CTL/central memory T cell response,"central memory T cells [1]; phase 2, week 9",30%
same,patients with positive CTL/central memory T cell response / patients tested,"central memory T cells [1]; phase 2, week 9",10/33
same,% of patients with positive CTL/central memory T cell response,"central memory T cells [1]; phase 2, week 18",25%
same,patients with positive CTL/central memory T cell response / patients tested,"central memory T cells [1]; phase 2, week 18",8/32
same,% of patients with positive CTL/central memory T cell response,"central memory T cells [1]; phase 2, week 30",43%
same,patients with positive CTL/central memory T cell response / patients tested,"central memory T cells [1]; phase 2, week 30",10/23
same,Mean SFC,central memory T cells [2]; Week 9,"49.2 SFC per 50,000 cells"
same,Mean SFC,central memory T cells [2]; Week 18,"77.8 SFC per 50,000 cells"
same,net SFC of vaccine positive CTL responses,"central memory T cells [2]; colon patient 551, Week 9",—
same,net SFC of vaccine positive CTL responses,"central memory T cells [2]; colon patient 551, Week 18","8.7 SFC per 50,000 cells"
same,net SFC of vaccine positive CTL responses,"central memory T cells [2]; colon patient 601, Week 9","27.0 SFC per 50,000 cells"
same,net SFC of vaccine positive CTL responses,"central memory T cells [2]; colon patient 601, Week 18",—
same,net SFC of vaccine positive CTL responses,"central memory T cells [2]; colon patient 602, Week 9",—
same,net SFC of vaccine positive CTL responses,"central memory T cells [2]; colon patient 602, Week 18",—
same,net SFC of vaccine positive CTL responses,"central memory T cells [2]; colon patient 603, Week 9",—
same,net SFC of vaccine positive CTL responses,"central memory T cells [2]; colon patient 603, Week 18","16.0 SFC per 50,000 cells"
same,net SFC of vaccine positive CTL responses,"central memory T cells [2]; colon patient 604, Week 9","60.3 SFC per 50,000 cells"
same,net SFC of vaccine positive CTL responses,"central memory T cells [2]; colon patient 604, Week 18","268.0 SFC per 50,000 cells"
same,net SFC of vaccine positive CTL responses,"central memory T cells [2]; colon patient 605, Week 9",—
same,net SFC of vaccine positive CTL responses,"central memory T cells [2]; colon patient 605, Week 18",—
same,net SFC of vaccine positive CTL responses,"central memory T cells [2]; colon patient 606, Week 9",—
same,net SFC of vaccine positive CTL responses,"central memory T cells [2]; colon patient 606, Week 18","18.7 SFC per 50,000 cells"
same,net SFC of vaccine positive CTL responses,"central memory T cells [2]; colon patient 607, Week 9","60.3 SFC per 50,000 cells"
same,net SFC of vaccine positive CTL responses,"central memory T cells [2]; colon patient 607, Week 18",—
same,net SFC of vaccine positive CTL responses,"central memory T cells [2]; colon patient 608, Week 9",—
same,net SFC of vaccine positive CTL responses,"central memory T cells [2]; colon patient 608, Week 18",—
same,net SFC of vaccine positive CTL responses,"central memory T cells [2]; colon patient 609, Week 9",—
same,net SFC of vaccine positive CTL responses,"central memory T cells [2]; colon patient 609, Week 18",—
same,No. Positive Responses,central memory T cells [3]; Week 9,0
same,No. Positive Responses,central memory T cells [3]; Week 18,0
same,net SFC of vaccine positive CTL responses,"central memory T cells [3]; NSCLC patient 201, Week 9",—
same,net SFC of vaccine positive CTL responses,"central memory T cells [3]; NSCLC patient 201, Week 18",—
same,net SFC of vaccine positive CTL responses,"central memory T cells [3]; NSCLC patient 502, Week 9",—
same,net SFC of vaccine positive CTL responses,"central memory T cells [3]; NSCLC patient 502, Week 18",—
same,net SFC of vaccine positive CTL responses,"central memory T cells [3]; NSCLC patient 504, Week 9",—
same,net SFC of vaccine positive CTL responses,"central memory T cells [3]; NSCLC patient 504, Week 18",—
same,net SFC of vaccine positive CTL responses,"central memory T cells [3]; NSCLC patient 505, Week 9",—
same,net SFC of vaccine positive CTL responses,"central memory T cells [3]; NSCLC patient 505, Week 18",—
same,net SFC of vaccine positive CTL responses,"central memory T cells [3]; NSCLC patient 532, Week 9",—
same,net SFC of vaccine positive CTL responses,"central memory T cells [3]; NSCLC patient 532, Week 18",—
same,net SFC of vaccine positive CTL responses,"central memory T cells [3]; NSCLC patient 651, Week 9",—
same,net SFC of vaccine positive CTL responses,"central memory T cells [3]; NSCLC patient 651, Week 18",—
KVFGSLAFV [HER2.369L2V9 A],% of patients with positive CTL/central memory T cell response,"central memory T cells [1]; phase 2, month 9",29%
same,patients with positive CTL/central memory T cell response / patients tested,"central memory T cells [1]; phase 2, month 9",2/7
same,% of patients with positive CTL/central memory T cell response,"central memory T cells [1]; phase 2, month 12",50%
same,patients with positive CTL/central memory T cell response / patients tested,"central memory T cells [1]; phase 2, month 12",2/4
same,% of patients with positive CTL/central memory T cell response,"central memory T cells [1]; phase 2, week 9",42%
same,patients with positive CTL/central memory T cell response / patients tested,"central memory T cells [1]; phase 2, week 9",14/33
same,% of patients with positive CTL/central memory T cell response,"central memory T cells [1]; phase 2, week 18",44%
same,patients with positive CTL/central memory T cell response / patients tested,"central memory T cells [1]; phase 2, week 18",14/32
same,% of patients with positive CTL/central memory T cell response,"central memory T cells [1]; phase 2, week 30",57%
same,patients with positive CTL/central memory T cell response / patients tested,"central memory T cells [1]; phase 2, week 30",13/23
same,Mean SFC,central memory T cells [2]; Week 9,"120.8 SFC per 50,000 cells"
same,Mean SFC,central memory T cells [2]; Week 18,"315.7 SFC per 50,000 cells"
same,net SFC of vaccine positive CTL responses,"central memory T cells [2]; colon patient 551, Week 9","134.7 SFC per 50,000 cells"
same,net SFC of vaccine positive CTL responses,"central memory T cells [2]; colon patient 551, Week 18","80.7 SFC per 50,000 cells"
same,net SFC of vaccine positive CTL responses,"central memory T cells [2]; colon patient 601, Week 9","112.7 SFC per 50,000 cells"
same,net SFC of vaccine positive CTL responses,"central memory T cells [2]; colon patient 601, Week 18","52.3 SFC per 50,000 cells"
same,net SFC of vaccine positive CTL responses,"central memory T cells [2]; colon patient 602, Week 9",—
same,net SFC of vaccine positive CTL responses,"central memory T cells [2]; colon patient 602, Week 18",—
same,net SFC of vaccine positive CTL responses,"central memory T cells [2]; colon patient 603, Week 9","30.0 SFC per 50,000 cells"
same,net SFC of vaccine positive CTL responses,"central memory T cells [2]; colon patient 603, Week 18",—
same,net SFC of vaccine positive CTL responses,"central memory T cells [2]; colon patient 604, Week 9","88.3 SFC per 50,000 cells"
same,net SFC of vaccine positive CTL responses,"central memory T cells [2]; colon patient 604, Week 18","314.7 SFC per 50,000 cells"
same,net SFC of vaccine positive CTL responses,"central memory T cells [2]; colon patient 605, Week 9","32.7 SFC per 50,000 cells"
same,net SFC of vaccine positive CTL responses,"central memory T cells [2]; colon patient 605, Week 18","33.7 SFC per 50,000 cells"
same,net SFC of vaccine positive CTL responses,"central memory T cells [2]; colon patient 606, Week 9",—
same,net SFC of vaccine positive CTL responses,"central memory T cells [2]; colon patient 606, Week 18","71.0 SFC per 50,000 cells"
same,net SFC of vaccine positive CTL responses,"central memory T cells [2]; colon patient 607, Week 9","389.3 SFC per 50,000 cells"
same,net SFC of vaccine positive CTL responses,"central memory T cells [2]; colon patient 607, Week 18","1642.7 SFC per 50,000 cells"
same,net SFC of vaccine positive CTL responses,"central memory T cells [2]; colon patient 608, Week 9",—
same,net SFC of vaccine positive CTL responses,"central memory T cells [2]; colon patient 608, Week 18",—
same,net SFC of vaccine positive CTL responses,"central memory T cells [2]; colon patient 609, Week 9","58.0 SFC per 50,000 cells"
same,net SFC of vaccine positive CTL responses,"central memory T cells [2]; colon patient 609, Week 18","14.7 SFC per 50,000 cells"
same,Mean SFC,central memory T cells [3]; Week 9,"84.3 SFC per 50,000 cells"
same,No. Positive Responses,central memory T cells [3]; Week 9,1
same,Mean SFC,central memory T cells [3]; Week 18,"109.3 SFC per 50,000 cells"
same,No. Positive Responses,central memory T cells [3]; Week 18,4
same,net SFC of vaccine positive CTL responses,"central memory T cells [3]; NSCLC patient 201, Week 9",—
same,net SFC of vaccine positive CTL responses,"central memory T cells [3]; NSCLC patient 201, Week 18",—
same,net SFC of vaccine positive CTL responses,"central memory T cells [3]; NSCLC patient 502, Week 9",—
same,net SFC of vaccine positive CTL responses,"central memory T cells [3]; NSCLC patient 502, Week 18",—
same,net SFC of vaccine positive CTL responses,"central memory T cells [3]; NSCLC patient 504, Week 9","84.3 SFC per 50,000 cells"
same,net SFC of vaccine positive CTL responses,"central memory T cells [3]; NSCLC patient 504, Week 18","284.0 SFC per 50,000 cells"
same,net SFC of vaccine positive CTL responses,"central memory T cells [3]; NSCLC patient 505, Week 9",—
same,net SFC of vaccine positive CTL responses,"central memory T cells [3]; NSCLC patient 505, Week 18","53.0 SFC per 50,000 cells"
same,net SFC of vaccine positive CTL responses,"central memory T cells [3]; NSCLC patient 532, Week 9",—
same,net SFC of vaccine positive CTL responses,"central memory T cells [3]; NSCLC patient 532, Week 18","78.3 SFC per 50,000 cells"
same,net SFC of vaccine positive CTL responses,"central memory T cells [3]; NSCLC patient 651, Week 9",—
same,net SFC of vaccine positive CTL responses,"central memory T cells [3]; NSCLC patient 651, Week 18","22.0 SFC per 50,000 cells"
